Measured values from paper PMC12040169 (PLOS Biology, 2025).

test: in vitro; details: human, hela cells, % viability

| Structure (SMILES) | viability at 28.5 h, 10 µM [%] |
| --- | --- |
| COc1cc(NC(=O)c2nc[nH]n2)c(OC)cc1Cl [CBK288170] | 93 |
| COc1ccc(-c2nnc([C@H]3CCN(C(=O)C4CC4)C3)o2)cc1 [CBK289409] | 89.6 |
| CNC(=O)c1cccc(NS(=O)(=O)c2sc3ccc(Cl)cc3c2C)c1 [CBK160383] | 89.3 |
| CCOC(=O)c1c(-c2ccc(OC)cc2)noc1C(=O)c1ccccc1 [CBK002295] | 89.7 |
| c1ccc(N2CCN(C3c4ccccc4Sc4ccccc43)CC2)cc1 [CBK066894] | 92.1 |
| OCCN(Cc1cccnc1)Cc1cccn1-c1cccc(F)c1 [CBK283018] | 81.5 |
| O=C(C1CC2C=CC1C21CC1)N1CCCC(c2nc3ccccc3[nH]2)C1 (centres unmarked) [CBK281513] | 91.4 |
| CN(C(=O)C1CCc2nn(C)c(=O)n2C1)C1Cc2ccccc2C1 (centres unmarked) [CBK307108] | 107 |
| Cc1ncc([N+](=O)[O-])n1CC(=O)Nc1ccccc1F [CBK269335] | 86.4 |
| Nc1cc2cc(F)ccc2nc1C1CCN(C(=O)C2CC2)CC1 [CBK284657] | 93.4 |
| CC(C)Nc1nccnc1Sc1cccc(C(=O)O)c1 [CBK093581] | 96.6 |
| O=S1(=O)NC=Nc2ccccc21 [CBK028171] | 112 |
| COc1ccc(/C=N/NC(=O)C2CCN(c3ncc(C(F)(F)F)cc3Cl)CC2)cc1 [CBK007433] | 102 |
| O=C(c1cc(-c2cccs2)[nH]n1)N1CCCCCC1 [CBK288108] | 92.1 |
| Cc1nc(C)n(CC2CCCCN2Cc2cn3ccccc3n2)n1 (centres unmarked) [CBK304008] | 111 |
| CCN(CC)C(=O)Cn1nc2c(C)cc3cc(C)ccc3n2c1=O [CBK283871] | 86.4 |
| COc1cc2c(cc1OC)CN(Cc1csc(C)n1)CC2 [CBK126443] | 93.4 |
| CC(C)NC(=O)C[C@@H]1c2nc(-c3ccccc3)sc2C[C@@H]2[C@](C)(CO)[C@H](O)CC[C@]21C [CBK289570] | 90.6 |
| Cn1cc(CC(=O)Nc2nc3c(cc2C#N)CCCC3)cn1 [CBK306436] | 90.7 |
| CC(=O)N1CC[C@H]2NC(=O)CNC(=O)C3(CCCC[C@H]2C1)CCN(C(=O)/C=C/c1ccccc1)CC3 [CBK292092] | 105 |
| O=c1c(-c2nnc(SCc3cccc(C(F)(F)F)c3)o2)cccn1Cc1ccccc1 [CBK067712] | 108 |
| CCOc1cccc(CN2CCCCC2c2[nH]ncc2C(N)=O)n1 (centres unmarked) [CBK304750] | 98.9 |

| Structure (SMILES) | viability at 28.5 h, 10 µM [%] |
| --- | --- |
| COc1ccc(NC(=O)COc2noc3nc(C)c(C)c(C)c23)cc1OC [CBK269526] | 108 |
| NCCNc1cccc2c1ccn2S(=O)(=O)c1ccccc1 [CBK028470C] | 80.2 |
| CC(C)Nc1cc(Sc2ccccc2N)ncn1 [CBK093729] | 91.6 |
| Cc1cc(C)cc(-c2ccc(CC3(C(=O)NCC4CCCOC4)CCOCC3)cc2)c1 (centres unmarked) [CBK286524] | 96.5 |
| CCOc1ccc(CNc2ccc(S(N)(=O)=O)cc2)cc1 [CBK267962] | 89.3 |
| CN1C(=O)CC2(C1=O)C(=O)N(CCCCOc1ccccc1)c1ccc(F)cc12 (centres unmarked) [CBK075408] | 96 |
| O=C(c1ccc(-c2cncc(-c3ccc(Cl)s3)n2)cc1)N1CCOCC1 [CBK138517] | 92.2 |
| CN(C)CCNc1ccc(-c2nnc(O)c3ccccc23)cc1[N+](=O)[O-] [CBK266143] | 111 |
| N#Cc1c(NC(=O)COc2ccc(Cl)cc2)oc(-c2ccccc2)c1-c1ccccc1 [CBK262938] | 91.5 |
| O=C(O)C1CCN(C(=O)CCN2C(=O)[C@@H]3Cc4ccccc4CN3C2=O)CC1 [CBK286682] | 88.2 |
| Brc1cncc2c1ccn2CCN1CCOCC1 [CBK083479] | 87.1 |
| C=CCC1(CC=C)CCN1C(=O)c1cccc(N2CCCC2=O)c1 [CBK282709] | 85 |
| Cn1cc(-c2nccnc2OC2CCCCC2)cn1 [CBK107072] | 99.7 |
| Cn1cc(CN[C@@H]2CCC(=O)N[C@H]2c2cc(F)cc(F)c2)cn1 [CBK282913] | 100 |
| Cn1cnnc1SCc1nc(N)nc(Nc2ccccc2)n1 [CBK018022] | 106 |
| Cn1c(=O)[nH]c(=O)c2c1nc(NC1CCCCC1)n2CCCc1ccccc1 [CBK269500] | 92.7 |
| COc1ccc(-c2nc(NC(=O)Cc3ccccc3OC(F)(F)F)cnc2-c2cccc(C)c2)cc1 [CBK037551] | 107 |
| COc1ncc(-c2nccnc2OCCn2cnc3c2c(=O)n(C)c(=O)n3C)c(OC)n1 [CBK106746] | 87.3 |
| COc1cccc(CCNC(=O)CCN2C(=O)CCC2=O)c1 [CBK023150] | 91.8 |
| CS(=O)(=O)c1ccc(-n2nnnc2CNC2(CO)CCCC2)cc1 [CBK304134] | 91.8 |
| CCC(O)Cn1nc(CCSC)nc1-c1cn(C)c(=O)[nH]c1=O (centres unmarked) [CBK306588] | 83.5 |
| CCc1cc(C(=O)Nc2nn(C)c3cccc(N4CCOCC4)c23)cs1 [CBK307419] | 110 |

| Structure (SMILES) | viability at 28.5 h, 10 µM [%] |
| --- | --- |
| O=C(c1cc(CC2(NCc3ccc(F)cc3)COC2)no1)N1CCCCC1 [CBK289657] | 92.4 |
| O=C(C(c1ccccc1)c1ccccc1)N1CCN(c2ncccn2)CC1 [CBK144504] | 89.4 |
| CC(C)C1OC(NCc2ccc(Cl)cc2)=NC1=O (centres unmarked) [CBK070352] | 94.9 |
| O=C(NC(c1ccc(-c2ccccc2)cc1)c1cnccn1)C1CCN(CCOc2ccc3ccccc3c2)CC1 (centres unmarked) [CBK147982] | 93.6 |
| CN1CCN(c2ccc(NC(=O)c3cccc(-c4cc5ccccc5oc4=O)c3)cc2Cl)CC1 [CBK269689] | 83.5 |
| O=C(/C=C/c1ccccc1)ONC(=O)c1ccc(Cl)cc1 [CBK263702] | 111 |
| CCNC(=O)N[C@H]1CO[C@H]2[C@@H]1OC[C@@H]2Nc1nccc(-c2cccc(F)c2)n1 [CBK289536] | 91.1 |
| CCC1CCCCN1C(=O)c1cncc(Br)c1 (centres unmarked) [CBK076699] | 107 |
| Cc1nnc(SCc2cc(=O)nc(Nc3nc(C)c4ccccc4n3)[nH]2)s1 [CBK266549] | 103 |
| Cn1nccc1NS(=O)(=O)c1ccc(Br)cc1C(F)(F)F [CBK062082] | 104 |
| Cc1cc2occ(CC(=O)NCc3cc(C4CC4)[nH]n3)c2cc1C [CBK282576] | 87.1 |
| c1ccc2sc(-n3cncn3)nc2c1 [CBK027022] | 92.2 |
| OCCN1CCN(c2nnc(-c3ccccc3)cc2-c2ccccc2)CC1 [CBK270045] | 86.2 |
| NS(=O)(=O)c1ccccc1NC(=O)NC1CCCCC1 [CBK016919] | 93.4 |
| O=C(Nn1cnnc1)c1ccccc1F [CBK027603] | 106 |
| COc1ccc(CN2CCC3(CCc4ccccc4C(=O)N3)C2)cc1 (centres unmarked) [CBK283339] | 97.6 |
| CN(C)S(=O)(=O)c1ccc(C(=O)Nc2ccccc2O)cc1 [CBK267809] | 94.1 |
| CN(C)CCN(C)c1nc(-c2ccc(C(=O)O)cc2)cn2ccnc12 [CBK037880] | 96.7 |
| COc1ccc(CNC(=O)CC[C@H]2CNC(=O)[C@H]3NCC[C@H]3N2C)cc1 [CBK289025] | 87.6 |
| OC12CCCCC1CN(CC1=Cc3ccccc3OC1)CC2 (centres unmarked) [CBK282954] | 86.3 |
| c1ccc(Nc2nc(-c3ccc(N4CCOCC4)cc3)cn3ccnc23)cc1 [CBK066222] | 90.4 |
| Cn1c(C(=O)O)cc2cc(Oc3ccccc3)ccc21 [CBK286873] | 86.3 |

| Structure (SMILES) | viability at 28.5 h, 10 µM [%] |
| --- | --- |
| Nc1nc(=O)[nH]c2c1ncn2[C@H]1C[C@@H](O)[C@@H](CO)O1 [CBK201323] | 86 |
| CC(=O)Nc1ccc(Nc2nc(Br)cn3ccnc23)cc1 [CBK066338] | 104 |
| O=C(Nc1ccncc1)c1ccc2nc[nH]c2c1 [CBK269034] | 93.2 |
| COc1cc(Nc2cccc(-c3cccc(NC(C)=O)c3)n2)cc(OC)c1OC [CBK037698] | 111 |
| CN(CCN1CCCCC1=O)c1nccc(CCC(F)(F)F)n1 [CBK307218] | 106 |
| Cn1c(=O)oc2ccc(C(=O)N3CCn4nc(CO)cc4C3)cc21 [CBK306821] | 85.6 |
| OCCN1CC2(CCN(CCN3CCOCC3)CC2)c2ccccc21 [CBK126766] | 91.4 |
| CS(=O)(=O)c1ncc(Cl)c(C(=O)N(Cc2ccccc2)Cc2ccco2)n1 [CBK269603] | 29.3 |
| O=C(NO)c1nc[nH]c1C(=O)NO [CBK262077] | 97.7 |
| CN(C(=O)CCn1c(=O)oc2cc(Cl)ccc21)C1(C(N)=O)CCCC1 [CBK305493] | 89.1 |
| N[C@H]1CCN2C(=O)c3cc(-c4ccc(F)cc4F)ccc3NC(=O)[C@H]12 [CBK289345] | 94.4 |
| COc1ccc(CN2Cc3nc[nH]c3C[C@H]2C(=O)NCc2ccccc2)c2ccccc12 [CBK288976] | 86.5 |
| CCn1cc(C(=O)O)c(=O)c2cnc(N3CCN(C(=S)NC(=O)c4cccs4)CC3)nc21 [CBK265753] | 95.7 |
| N#Cc1ccc(NCC(=O)Nc2ncccc2O)cc1 [CBK306413] | 88.7 |
| CC(C)(Oc1ccc(Cl)cc1)C(=O)NCCc1ccc(S(N)(=O)=O)cc1 [CBK265628] | 107 |
| COc1ccc(C2CC(=O)c3c(C)n[nH]c3C2)cc1 (centres unmarked) [CBK287911] | 114 |
| COc1ccc(CCNCC2OCCCc3cc(OC)c(OC)cc32)cc1OC (centres unmarked) [CBK012466C] | 94 |
| C[C@H]1[C@@H]2[C@@H](O)C([C@H](C)C(=O)N3CCCCC3)CC[C@@]2(C)CC[C@@H]1NC(=O)c1cnccn1 (some centres unmarked) [CBK289448] | 111 |
| Cc1cccc(-c2n[nH]c(=S)n2CC(=O)Nc2cccc(C#Cc3ccccn3)c2)c1 [CBK296633] | 92.8 |
| Cc1cccc(NC(=O)C2CC(=O)N=C(Nc3nc4ccccc4s3)N2)c1 (centres unmarked) [CBK264362] | 108 |
| Clc1cccc(CN2CCC(N3CCN(c4ccccc4)CC3)CC2)c1 [CBK264690G] | 98.7 |
| Cc1cccn2cc(CCNC(=O)CN(C)C3CCSC3)nc12 (centres unmarked) [CBK304027] | 84.6 |

same assay, conditions: human, hela cells, % viability, bulk resorufin, single well

| Structure (SMILES) | viability at 28.5 h, 10 µM [%] |
| --- | --- |
| O=C1NC(=O)N(c2ccc(Cl)cc2)C(=O)/C1=C\NCCCO [CBK261648] | 90.2 |
